Measured values as given in patent US10065990B2, “Cyclic peptide compound, and preparation method, pharmaceutical composition and use thereof” (HANGZHOU GUANYU BIO-MEDICAL CO., LTD, priority 2013, dated 2018).
Like-named read-outs stand apart in the source and are kept apart here.

Experiments:
[1] = biological target: T1, HDAC7 (Homo sapiens, UniProt Q8WUI4); test: HDAC biochemical activity measurement (fluorescent substrate deacetylation);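 also: fluorogenic deacetylation assay using acetyl-lysine substrate at 20 µM, enzyme and compound incubated 30 min at 37 °C, then developer added, fluorescence read at 360/460 nm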; details: HDAC7; 37° C. 30 minutes
T1 sequence (Q8WUI4 1-952): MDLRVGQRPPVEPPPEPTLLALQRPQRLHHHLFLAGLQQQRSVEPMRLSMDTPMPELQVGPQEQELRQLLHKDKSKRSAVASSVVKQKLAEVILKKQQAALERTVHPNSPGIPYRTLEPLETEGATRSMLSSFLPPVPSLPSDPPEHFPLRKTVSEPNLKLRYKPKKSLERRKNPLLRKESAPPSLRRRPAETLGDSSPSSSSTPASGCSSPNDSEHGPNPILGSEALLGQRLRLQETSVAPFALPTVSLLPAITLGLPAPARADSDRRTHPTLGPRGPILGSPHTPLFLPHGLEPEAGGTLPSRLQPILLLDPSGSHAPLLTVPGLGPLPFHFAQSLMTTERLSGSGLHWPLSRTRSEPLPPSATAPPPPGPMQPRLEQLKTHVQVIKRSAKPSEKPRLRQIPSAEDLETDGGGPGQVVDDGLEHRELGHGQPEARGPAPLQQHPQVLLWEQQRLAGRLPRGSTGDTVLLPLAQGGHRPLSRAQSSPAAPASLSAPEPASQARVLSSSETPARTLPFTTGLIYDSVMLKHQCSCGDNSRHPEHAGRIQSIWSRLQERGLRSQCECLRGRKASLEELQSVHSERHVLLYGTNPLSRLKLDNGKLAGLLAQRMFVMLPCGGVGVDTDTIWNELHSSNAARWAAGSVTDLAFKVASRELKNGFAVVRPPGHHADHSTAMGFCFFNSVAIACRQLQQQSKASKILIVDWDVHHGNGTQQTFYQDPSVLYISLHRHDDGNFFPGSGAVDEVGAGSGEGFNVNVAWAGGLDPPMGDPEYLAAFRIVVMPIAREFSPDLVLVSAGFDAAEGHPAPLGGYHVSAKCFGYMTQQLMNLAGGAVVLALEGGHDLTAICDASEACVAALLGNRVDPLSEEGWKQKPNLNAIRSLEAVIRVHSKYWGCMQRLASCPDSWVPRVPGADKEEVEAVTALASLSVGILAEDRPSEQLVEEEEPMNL

[2] = system: A549 (human lung cancer cells); test: MTT cancer cell growth inhibition; assay type: cell-based; details: Homo sapiens, A549, 72 h, MTT, 72 hours incubation, read-out: GI50 A54
From the text: (§1) MTT assay principle is yellow MTT can penetrate membrane into the cell, succinic dehydrogenase of the mitochondria in living cells can make exogenous MTT reduction of insoluble in water of blue-violet acicular formazan for crystallization and deposition in the cell, crystallization can be dissolved dimethyl sulfoxide (DMSO) solution, detected its absorbance at 490 nm/570 nm wavelength by enzyme-linked immunosorbent assay, which can reflect the number of cells.
(§2) Using DMEM+10% FBS culture medium or using 1640+10% FBS culture, respectively.
(§3) a) Cells were seeded in 96-well plates with the inoculation of 1500/well, 190 μl/hole, 37° C., 5% of CO2 incubator overnight;
(§4) b) The next day each well was added 10 μl of different drugs. The final concentration of drug was 10^−5˜10^−10M, three parallel holes; 37° C., 5% CO2 culture incubator for 72 hours incubation;
(§5) c) Per well was added 20 μl 5 mg/ml of MTT, 37° C., 5% CO2 culture incubator for 4 hours incubation;
(§6) d) The supernatant was discarded. Each well was added 100 μl of DMSO and oscillation;
(§7) e) 570 nm readings. Calculate cell viability. GI50 calculation based on the results.

[3] = system: BGC-823 (human gastric cancer cells); test: MTT cancer cell growth inhibition; assay type: cell-based; details: Homo sapiens, BGC-823, 72 h, MTT, 72 hours incubation, read-out: GI50 BG
From the text: as §1, §2, §3, §4, §5, §6, §7

[4] = system: Bel-7402 (human hepatoma cells); test: MTT cancer cell growth inhibition; assay type: cell-based; details: Homo sapiens, Bel-7402, 72 h, MTT, 72 hours incubation, Bel-7402 cells; read-out: GI50 Bel-7402
From the text: as §1, §2, §3, §4, §5, §6, §7

[5] = system: DU145 (human prostate cancer cells); test: MTT cancer cell growth inhibition; assay type: cell-based; details: Homo sapiens, DU-145, 72 h, MTT, 72 hours incubation, read-out: GI50 Du1
From the text: as §1, §2, §3, §4, §5, §6, §7

[6] = system: H1975 (non-small cell lung adenocarcinoma); test: MTT cancer cell growth inhibition; assay type: cell-based; details: Homo sapiens, NCI-H1975, 72 h, MTT, 72 hours incubation, H1975 cells; read-out: GI50 H1975
From the text: as §1, §2, §3, §4, §5, §6, §7

[7] = system: HCC827 (human non-small cell lung cancer cells); test: MTT cancer cell growth inhibition; assay type: cell-based; details: Homo sapiens, HCC827, 72 h, MTT, 72 hours incubation, HCC827 cells; read-out: GI50 HCC827
From the text: as §1, §2, §3, §4, §5, §6, §7

[8] = system: HT1080 (human fibrosarcoma cells); test: MTT cancer cell growth inhibition; assay type: cell-based; details: Homo sapiens, HT-1080, 72 h, MTT, 72 hours incubation, read-out: GI50 HT1
From the text: as §1, §2, §3, §4, §5, §6, §7

[9] = system: Hela (human cervical cancer cells); test: MTT cancer cell growth inhibition; assay type: cell-based; details: Homo sapiens, HeLa, 72 h, MTT, 72 hours incubation, read-out: GI50 Hela
From the text: as §1, §2, §3, §4, §5, §6, §7

[10] = system: Huh-7 (human hepatoma cells); test: MTT cancer cell growth inhibition; assay type: cell-based; details: Homo sapiens, Huh-7, 72 h, MTT, 72 hours incubation, Huh-7 cells; read-out: GI50 Huh-7
From the text: as §1, §2, §3, §4, §5, §6, §7

[11] = system: K562 (human leukemia cells); test: MTT cancer cell growth inhibition; assay type: cell-based; details: Homo sapiens, K562, 72 h, MTT, 72 hours incubation, K562 cells; read-out: GI50 K562
From the text: as §1, §2, §3, §4, §5, §6, §7

[12] = system: KBM-5 (human chronic myelogenous leukemia); test: MTT cancer cell growth inhibition; assay type: cell-based; details: Homo sapiens, KBM5, 72 h, MTT, 72 hours incubation, KBM-5 cells; read-out: GI50 KBM-5
From the text: as §1, §2, §3, §4, §5, §6, §7

[13] = system: KBM5-T315I (human chronic myelogenous leukemia); test: MTT cancer cell growth inhibition; assay type: cell-based; details: Homo sapiens, 72 h, MTT, 72 hours incubation, KBM5-T315I cells; read-out: GI50 KBM5-T315I
From the text: as §1, §2, §3, §4, §5, §6, §7

[14] = system: MCF-7 (human breast cancer cells); test: MTT cancer cell growth inhibition; assay type: cell-based; details: Homo sapiens, MCF7, 72 h, 72 hours incubation, read-out: GI50 MCF
From the text: as §1, §2, §3, §4, §5, §6, §7

[15] = system: MDA-MB-231 (breast cancer cells); test: MTT cancer cell growth inhibition; assay type: cell-based; details: Homo sapiens, MDA-MB-231, 72 h, read-out: GI50 MDA-MB-231, MTT, 72 hours incubation, MDA-MB-231 cells
From the text: as §1, §2, §3, §4, §5, §6, §7

[16] = system: MOLT-4 (human acute lymphoblastic leukemia cells); test: MTT cancer cell growth inhibition; assay type: cell-based; details: Homo sapiens, MOLT-4, 72 h, MTT, 72 hours incubation, read-out: GI50 Mol
From the text: as §1, §2, §3, §4, §5, §6, §7

[17] = system: N-87 (human gastric cancer cells); test: MTT cancer cell growth inhibition; assay type: cell-based; details: Homo sapiens, 72 h, MTT, 72 hours incubation, N-87 cells; read-out: GI50 N-87
From the text: as §1, §2, §3, §4, §5, §6, §7

[18] = system: PANC-1 (Pac-1, human pancreatic cancer cells); test: MTT cancer cell growth inhibition; assay type: cell-based; details: Homo sapiens, PANC-1, 72 h, MTT, 72 hours incubation, read-out: GI50 PAN
From the text: as §1, §2, §3, §4, §5, §6, §7

[19] = system: SGC-7901 (human gastric cancer cells); test: MTT cancer cell growth inhibition; assay type: cell-based; details: Homo sapiens, SGC-7901, 72 h, MTT, 72 hours incubation, SGC-7901 cells; read-out: GI50 SGC-7901
From the text: as §1, §2, §3, §4, §5, §6, §7

[20] = system: U937 (human leukemia cells); test: MTT cancer cell growth inhibition; assay type: cell-based; details: Homo sapiens, U-937, 72 h, MTT, 72 hours incubation, read-out: GI50 U93
From the text: as §1, §2, §3, §4, §5, §6, §7

[21] = system: lncap (prostate cancer cells); test: MTT cancer cell growth inhibition; assay type: cell-based; details: Homo sapiens, LNCaP, 72 h, MTT, 72 hours incubation, read-out: GI50 lnca
From the text: as §1, §2, §3, §4, §5, §6, §7

| SMILES | IC50 HDAC7 [1] | GI50 [4] [µM] | GI50 [6] [µM] | GI50 [7] [µM] | GI50 [10] [µM] | GI50 [11] [µM] | GI50 [12] [µM] | GI50 [13] [µM] | GI50 [15] [µM] | GI50 [17] [µM] | GI50 [19] [µM] | GI50 [2] [µM] | GI50 [3] [µM] | GI50 [5] [µM] | GI50 [8] [µM] | GI50 [9] [µM] | GI50 [14] [µM] | GI50 [16] [µM] | GI50 [18] [µM] | GI50 [20] [µM] | also measured |
| --- | --- | --- | --- | --- | --- | --- | --- | --- | --- | --- | --- | --- | --- | --- | --- | --- | --- | --- | --- | --- | --- |
| C/C=C1\NC(=O)c2nc(ccc2SC)CNC(=O)C[C@@H](/C=C/CCSC(C)=O)OC(=O)[C@H](Cc2ccccc2)NC1=O [Compound 186] | no activity | 0.052 | 0.063 | 0.089 | 0.016 | 0.039 | 0.036 | 0.021 | 0.039 | 0.028 | 0.043 | – | – | – | – | – | – | – | – | – | GI50 ([2]; A549 cells): 0.03 µM; GI50 ([3]; BGC-823 cells): 0.04 µM; GI50 ([5]; DU145 cells): 0.1 µM; GI50 ([8]; HT1080 cells): 0.02 µM; GI50 ([9]; Hela cells): 0.07 µM; GI50 ([14]; MCF-7 cells): 0.05 µM; GI50 ([16]; MOLT-4 cells): 0.03 µM; GI50 ([18]; PANC-1 cells): 0.05 µM; GI50 ([20]; U937 cells): 0.04 µM; GI50 ([21]; lncap cells): 0.03 µM |
| C/C=C1\NC(=O)c2ncc(F)c(n2)CNC(=O)C[C@@H](/C=C/CCSC(C)=O)OC(=O)[C@H](C)NC1=O [Compound 99] | no activity | 0.016 | 0.058 | 0.088 | 0.031 | 0.042 | 0.019 | 0.022 | 0.024 | 0.031 | 0.069 | 0.06 | 0.06 | 0.04 | 0.07 | 0.06 | 0.01 | 0.02 | 0.07 | 0.06 | GI50 [21]: 0.02 µM |
| C/C=C1\NC(=O)c2cccc(n2)CNC(=O)C[C@@H](/C=C/CCS)OC(=O)[C@H](Cc2cccc3ccccc23)NC1=O [Compound 123] | no activity | 0.027 | 0.021 | 0.069 | 0.035 | 0.036 | 0.068 | 0.067 | 0.039 | 0.062 | 0.051 | 0.06 | 0.04 | 0.06 | 0.09 | 0.09 | 0.06 | 0.09 | 0.04 | 0.06 | GI50 [21]: 0.09 µM |
| C/C=C1\NC(=O)c2ccc(F)c(n2)CNC(=O)C[C@@H](/C=C/CCS)OC(=O)[C@H](CCCCNC(=O)OCC2c3ccccc3-c3ccccc32)NC1=O [Compound 122] | no activity | 0.049 | 0.055 | 0.032 | 0.091 | 0.046 | 0.038 | 0.026 | 0.032 | 0.048 | 0.061 | 0.11 | 0.02 | 0.08 | 0.03 | 0.05 | 0.03 | 0.1 | 0.03 | 0.11 | GI50 [21]: 0.03 µM |
